Laboratory results: ChEMBL document CHEMBL5346924, “Optically activated MEK1/2 inhibitors (Opti-MEKi) as potential antimelanoma agents” (Eur J Med Chem, 2023)
Calls of active or inactive are those of the source. The calls are words filed in the database; no cut-off is given here.

Assays:
[1] = system: A-375; assay: Antiproliferative activity against human A-375 cells harboring BRAF V600E mutant assessed as cell growth inhibition preincubated with compound for 1 hrs followed by UV irradiation for 5 mins and measured 72 hrs post compound treatment by CellTiter-Glo luminescent assay; assay type: functional; conditions: A-375, light or radiation study
[2] = Cytotoxicity against HEK293T cells assessed as cell growth inhibition incubated for 72 hrs by CellTiter-Glo luminescent assay; assay type: toxicity, cell-based, HEK-293T; conditions: human
[3] = organism: Homo sapiens; assay: Inhibition of recombinant human PI3K at 1 uM
[4] = Photoactivation of the compound assessed as photocleavage by measuring decay half-life in the presence of 365 nm UV irradiation by HPLC based LC-MS analysis
[5] = target: Ribosomal protein S6 kinase alpha-1 (Homo sapiens) (UniProt Q15418); assay: Inhibition of recombinant human RSK1 at 1 uM
[6] = system: A-375; assay: Inhibition of MEK/ERK/RSK signaling in human A-375 cells at 5 nM in the absence of light irradiation by Western blot analysis; assay type: cell-based
[7] = target: Epidermal growth factor receptor (Homo sapiens) (UniProt P00533); assay: Inhibition of recombinant human EGFR at 1 uM
[8] = system: A-375; assay: Inhibition of MEK/ERK/RSK signaling in human A-375 cells assessed as inhibition of RSK phosphorylation at 5 nM in the presence of 365 nm light irradiation for 30 sec to 5 min by Western blot analysis; assay type: cell-based
[9] = Selectivity ratio of GI50 for antiproliferative activity against human A-375 cells harboring BRAF V600E mutant in the absence of UV irradiation to GI50 for antiproliferative activity against human A-375 cells harboring BRAF V600E mutant in the presence of UV irradiation for 5 mins; assay type: functional
[10] = Stability in human blood plasma assessed as half-life; assay type: ADME, cell-free
[11] = system: A549; assay: Antiproliferative activity against human A549 cells harboring KRAS […] mutant assessed as cell growth inhibition incubated for 72 hrs in the absence of UV irradiation by CellTiter-Glo luminescent assay; assay type: functional; conditions: A549, light or radiation study
[12] = system: A-375; assay: Inhibition of colony formation in human A-375 cells preincubated with compound for 1 hrs followed by 365 nm light irradiation for 5 mins and measured for 10 days by crystal violet staining based analysis; assay type: functional, cell-based; conditions: dose 10-300 nM, time 14465.0 min
[13] = Photoactivation of the compound assessed as photocleavage in the presence of 365 nm UV irradiation by HPLC based LC-MS analysis
[14] = target: CYP2C9 (Homo sapiens, UniProt P11712); assay: Inhibition of CYP2C9 in human microsomes at 10 uM in the presence of NADPH relative to control; assay type: ADME, Microsome
[15] = target: Dual specificity mitogen-activated protein kinase kinase 2 (Homo sapiens) (UniProt P36507); assay: Inhibition of recombinant human MEK2 at 1 uM
[16] = system: A-375; assay: Antiproliferative activity against CM-Dil labelled human A-375 cells xenografted in Zebra fish AB at 45 pM administered from 3 days post fertilization and measured at day 5 post fertilization in the absence of irradiation by fluorescence based analysis; assay type: functional, cell-based; conditions: time 48.0 hrs
[17] = system: A-375; assay: Antiproliferative activity against CM-Dil labelled human A-375 cells xenografted in Zebra fish AB assessed as suppression of tumor growth by measuring red fluorescence preincubated with compound followed by 365 nm light irradiation for 5 mins and measured after 48 hrs by fluorescence based analysis; assay type: functional, cell-based; conditions: dose 45-90 pM
[18] = target: Serine/threonine-protein kinase B-raf (Homo sapiens) (UniProt P15056); assay: Inhibition of recombinant human BRAF at 1 uM
[19] = target: CYP2C19 (Homo sapiens, UniProt P33261); assay: Inhibition of CYP2C19 in human microsomes at 10 uM in the presence of NADPH relative to control; assay type: ADME, Microsome
[20] = system: HCT-116; assay: Antiproliferative activity against human HCT-116 cells harboring KRAS G13D mutant assessed as cell growth inhibition preincubated with compound for 1 hrs followed by UV irradiation for 5 mins and measured 72 hrs post compound treatment by CellTiter-Glo luminescent assay; assay type: functional; conditions: HCT-116, light or radiation study
[21] = system: Serine/threonine-protein kinase B-raf (Homo sapiens), P15056 [V600E]; assay: Inhibition of recombinant human BRAF V600E mutant at 1 uM
[22] = Photoactivation of the compound assessed as fold change in caging efficiency
[23] = Metabolic stability in human liver microsomes assessed as intrinsic clearance in the presence of NADPH regenerating system; assay type: ADME, Microsome; conditions: read-out: CLH
[24] = system: A-375; assay: Inhibition of colony formation in human A-375 cells at 10 to 300 nM incubated for 10 days by crystal violet staining based analysis; assay type: functional, cell-based; conditions: dose 10-300 nM, time 10.0 day
[25] = target: Mitogen-activated protein kinase 3 (Homo sapiens) (UniProt P27361); assay: Inhibition of recombinant human ERK1 at 1 uM
[26] = Metabolic stability in human liver microsomes assessed as parent compound remaining measured after 1 hrs in the presence of NADPH regenerating system; assay type: ADME, Microsome; conditions: read-out: Stability
[27] = target: T1, CYP1A2 (Homo sapiens, UniProt P05177); assay: Inhibition of CYP1A2 in human microsomes at 10 uM in the presence of NADPH relative to control; assay type: ADME, Microsome
T1 sequence (P05177 whole entry): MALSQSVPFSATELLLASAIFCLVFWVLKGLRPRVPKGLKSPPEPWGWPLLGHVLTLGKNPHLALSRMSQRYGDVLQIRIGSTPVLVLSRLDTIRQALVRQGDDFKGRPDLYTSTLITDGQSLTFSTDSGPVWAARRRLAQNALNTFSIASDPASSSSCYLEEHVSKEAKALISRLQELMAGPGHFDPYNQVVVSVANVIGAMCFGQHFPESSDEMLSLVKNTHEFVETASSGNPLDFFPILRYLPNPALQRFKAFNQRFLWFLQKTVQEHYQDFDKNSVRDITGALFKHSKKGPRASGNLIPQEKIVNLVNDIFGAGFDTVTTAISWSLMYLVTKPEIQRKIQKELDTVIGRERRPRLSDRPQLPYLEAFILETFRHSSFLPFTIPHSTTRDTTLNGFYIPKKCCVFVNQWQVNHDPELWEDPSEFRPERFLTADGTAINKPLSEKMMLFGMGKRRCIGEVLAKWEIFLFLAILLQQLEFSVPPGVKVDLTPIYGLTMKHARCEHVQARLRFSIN

[28] = target: CYP2D6 (Homo sapiens, UniProt P10635); assay: Inhibition of CYP2D6 in human microsomes at 10 uM in the presence of NADPH relative to control; assay type: ADME, Microsome
[29] = Metabolic stability in human liver microsomes assessed as parent compound remaining measured after 1 hrs in the absence of NADPH regenerating system; assay type: ADME, Microsome; conditions: read-out: Stability
[30] = system: A-375; assay: Antiproliferative activity against human A-375 cells harboring BRAF V600E mutant assessed as cell growth inhibition preincubated with compound for 1 hrs followed by UV irradiation for 1 min and measured 72 hrs post compound treatment by CellTiter-Glo luminescent assay; assay type: functional; conditions: A-375, light or radiation study
[31] = target: Dual specificity mitogen-activated protein kinase kinase 1 (Homo sapiens, UniProt Q02750); assay: Inhibition of recombinant human MEK1 at 1 uM
Chain of Dual specificity mitogen-activated protein kinase kinase 1 (Q02750 whole entry): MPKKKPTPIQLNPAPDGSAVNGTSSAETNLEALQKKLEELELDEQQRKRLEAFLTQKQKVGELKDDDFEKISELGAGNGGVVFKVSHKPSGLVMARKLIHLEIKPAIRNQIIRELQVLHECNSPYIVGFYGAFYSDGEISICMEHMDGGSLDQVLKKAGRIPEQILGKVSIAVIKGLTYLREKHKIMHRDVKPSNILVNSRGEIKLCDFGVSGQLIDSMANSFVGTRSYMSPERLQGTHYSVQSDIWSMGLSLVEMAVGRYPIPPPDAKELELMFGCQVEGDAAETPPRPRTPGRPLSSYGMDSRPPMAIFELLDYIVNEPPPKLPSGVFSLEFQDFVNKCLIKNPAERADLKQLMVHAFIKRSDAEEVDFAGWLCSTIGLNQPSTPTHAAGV

Chain of Serine/threonine-protein kinase B-raf (Homo sapiens) (P15056 whole entry): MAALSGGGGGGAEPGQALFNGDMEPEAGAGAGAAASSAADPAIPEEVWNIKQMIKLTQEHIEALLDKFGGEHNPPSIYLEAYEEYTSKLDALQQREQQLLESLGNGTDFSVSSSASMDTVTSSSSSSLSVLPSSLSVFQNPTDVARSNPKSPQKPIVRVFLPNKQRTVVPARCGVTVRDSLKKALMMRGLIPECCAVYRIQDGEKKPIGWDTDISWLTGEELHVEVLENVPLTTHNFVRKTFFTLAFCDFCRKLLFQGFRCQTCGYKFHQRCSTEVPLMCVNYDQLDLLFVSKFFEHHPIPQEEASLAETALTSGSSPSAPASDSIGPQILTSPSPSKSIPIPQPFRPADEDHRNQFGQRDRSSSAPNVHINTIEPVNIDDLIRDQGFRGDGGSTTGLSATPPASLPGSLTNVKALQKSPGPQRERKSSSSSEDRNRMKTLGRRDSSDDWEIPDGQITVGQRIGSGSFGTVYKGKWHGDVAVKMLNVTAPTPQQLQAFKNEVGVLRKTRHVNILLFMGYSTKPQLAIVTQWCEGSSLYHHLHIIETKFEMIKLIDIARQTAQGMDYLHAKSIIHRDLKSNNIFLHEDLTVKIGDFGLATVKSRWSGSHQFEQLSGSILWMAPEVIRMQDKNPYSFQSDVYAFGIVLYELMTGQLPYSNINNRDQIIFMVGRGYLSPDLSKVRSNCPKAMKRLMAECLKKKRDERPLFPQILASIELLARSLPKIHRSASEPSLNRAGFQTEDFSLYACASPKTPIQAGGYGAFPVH
Chain of Mitogen-activated protein kinase 3 (Homo sapiens) (P27361 whole entry): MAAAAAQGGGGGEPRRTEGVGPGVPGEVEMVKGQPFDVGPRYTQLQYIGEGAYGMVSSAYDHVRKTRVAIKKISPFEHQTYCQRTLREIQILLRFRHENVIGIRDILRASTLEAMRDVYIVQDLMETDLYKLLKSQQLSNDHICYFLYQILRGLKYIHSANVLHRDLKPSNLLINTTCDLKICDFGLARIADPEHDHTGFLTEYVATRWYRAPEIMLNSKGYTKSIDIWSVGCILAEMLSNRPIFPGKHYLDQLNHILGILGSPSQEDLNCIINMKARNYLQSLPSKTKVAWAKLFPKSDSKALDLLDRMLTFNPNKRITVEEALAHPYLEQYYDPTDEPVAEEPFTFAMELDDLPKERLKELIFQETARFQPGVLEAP
Chain of CYP2C9 (P11712 whole entry): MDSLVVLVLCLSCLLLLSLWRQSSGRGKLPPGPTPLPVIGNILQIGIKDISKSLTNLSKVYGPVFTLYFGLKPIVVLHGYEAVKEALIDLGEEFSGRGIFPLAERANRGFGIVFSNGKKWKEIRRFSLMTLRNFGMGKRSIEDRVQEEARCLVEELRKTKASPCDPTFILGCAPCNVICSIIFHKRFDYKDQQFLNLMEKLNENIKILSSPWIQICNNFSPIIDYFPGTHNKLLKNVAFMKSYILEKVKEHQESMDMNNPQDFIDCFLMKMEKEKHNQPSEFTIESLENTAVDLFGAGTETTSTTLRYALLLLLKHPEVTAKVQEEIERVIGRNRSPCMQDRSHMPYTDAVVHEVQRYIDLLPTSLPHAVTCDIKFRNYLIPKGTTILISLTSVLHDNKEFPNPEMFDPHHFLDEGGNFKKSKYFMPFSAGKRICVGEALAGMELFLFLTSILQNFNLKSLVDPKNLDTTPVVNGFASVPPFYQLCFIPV
Chain of Epidermal growth factor receptor (Homo sapiens) (P00533 whole entry): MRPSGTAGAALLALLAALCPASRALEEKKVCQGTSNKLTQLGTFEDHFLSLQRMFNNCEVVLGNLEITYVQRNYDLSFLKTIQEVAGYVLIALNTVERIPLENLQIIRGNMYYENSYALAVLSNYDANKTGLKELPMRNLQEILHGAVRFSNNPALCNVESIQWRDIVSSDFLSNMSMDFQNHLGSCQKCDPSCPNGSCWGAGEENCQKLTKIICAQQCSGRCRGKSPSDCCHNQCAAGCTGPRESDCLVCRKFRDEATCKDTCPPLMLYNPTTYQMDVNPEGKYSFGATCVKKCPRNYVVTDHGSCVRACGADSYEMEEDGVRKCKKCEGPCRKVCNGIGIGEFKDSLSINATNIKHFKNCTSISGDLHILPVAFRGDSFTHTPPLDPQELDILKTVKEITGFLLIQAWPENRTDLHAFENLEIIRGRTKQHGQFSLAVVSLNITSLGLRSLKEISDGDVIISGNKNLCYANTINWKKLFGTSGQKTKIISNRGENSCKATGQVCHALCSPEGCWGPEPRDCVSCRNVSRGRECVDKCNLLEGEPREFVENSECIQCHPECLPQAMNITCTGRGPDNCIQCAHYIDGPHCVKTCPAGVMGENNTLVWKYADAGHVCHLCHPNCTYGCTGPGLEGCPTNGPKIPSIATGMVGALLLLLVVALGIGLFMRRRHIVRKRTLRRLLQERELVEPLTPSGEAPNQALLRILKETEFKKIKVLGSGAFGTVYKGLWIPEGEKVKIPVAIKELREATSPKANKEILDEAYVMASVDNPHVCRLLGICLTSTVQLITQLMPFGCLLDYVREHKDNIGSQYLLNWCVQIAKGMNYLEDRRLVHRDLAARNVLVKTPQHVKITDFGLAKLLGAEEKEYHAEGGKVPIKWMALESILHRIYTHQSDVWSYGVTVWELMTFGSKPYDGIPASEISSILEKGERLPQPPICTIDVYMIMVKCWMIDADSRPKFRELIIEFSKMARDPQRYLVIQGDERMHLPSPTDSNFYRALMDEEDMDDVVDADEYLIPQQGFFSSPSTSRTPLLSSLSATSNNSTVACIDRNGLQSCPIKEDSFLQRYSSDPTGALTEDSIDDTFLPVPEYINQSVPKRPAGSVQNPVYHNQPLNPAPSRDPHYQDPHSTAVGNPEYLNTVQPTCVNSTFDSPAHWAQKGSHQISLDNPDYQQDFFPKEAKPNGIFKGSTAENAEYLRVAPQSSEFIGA
Chain of Ribosomal protein S6 kinase alpha-1 (Homo sapiens) (Q15418 whole entry): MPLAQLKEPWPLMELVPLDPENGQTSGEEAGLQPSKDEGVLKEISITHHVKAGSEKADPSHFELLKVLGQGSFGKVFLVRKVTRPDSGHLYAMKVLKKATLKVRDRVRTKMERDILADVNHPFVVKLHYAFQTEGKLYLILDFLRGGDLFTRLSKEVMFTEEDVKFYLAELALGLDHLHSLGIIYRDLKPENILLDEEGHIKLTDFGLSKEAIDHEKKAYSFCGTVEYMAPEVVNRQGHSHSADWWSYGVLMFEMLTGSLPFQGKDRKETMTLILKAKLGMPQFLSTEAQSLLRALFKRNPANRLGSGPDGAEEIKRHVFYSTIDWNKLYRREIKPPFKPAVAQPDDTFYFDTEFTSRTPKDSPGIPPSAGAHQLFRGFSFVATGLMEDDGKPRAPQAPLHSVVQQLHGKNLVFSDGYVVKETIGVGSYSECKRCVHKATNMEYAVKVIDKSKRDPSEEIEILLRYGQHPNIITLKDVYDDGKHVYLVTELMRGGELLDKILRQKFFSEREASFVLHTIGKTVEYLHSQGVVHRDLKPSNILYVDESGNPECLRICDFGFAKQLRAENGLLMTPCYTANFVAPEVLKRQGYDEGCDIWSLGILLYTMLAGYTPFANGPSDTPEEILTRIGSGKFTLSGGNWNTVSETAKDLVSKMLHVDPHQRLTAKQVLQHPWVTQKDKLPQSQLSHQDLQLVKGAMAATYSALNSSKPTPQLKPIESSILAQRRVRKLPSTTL
Chain of CYP2C19 (P33261 whole entry): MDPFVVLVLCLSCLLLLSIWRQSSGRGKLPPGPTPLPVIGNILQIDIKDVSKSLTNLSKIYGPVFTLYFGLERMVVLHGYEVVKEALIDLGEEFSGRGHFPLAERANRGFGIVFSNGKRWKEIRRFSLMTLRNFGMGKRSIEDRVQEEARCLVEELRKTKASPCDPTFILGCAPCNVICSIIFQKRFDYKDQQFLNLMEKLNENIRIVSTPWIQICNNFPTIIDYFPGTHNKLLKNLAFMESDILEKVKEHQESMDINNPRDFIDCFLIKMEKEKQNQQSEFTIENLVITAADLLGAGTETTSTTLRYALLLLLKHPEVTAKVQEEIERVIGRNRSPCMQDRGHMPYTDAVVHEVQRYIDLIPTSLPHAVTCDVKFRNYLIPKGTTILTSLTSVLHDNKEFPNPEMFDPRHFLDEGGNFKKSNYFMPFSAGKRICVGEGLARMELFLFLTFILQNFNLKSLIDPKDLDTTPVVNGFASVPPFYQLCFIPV
Chain of CYP2D6 (P10635 whole entry): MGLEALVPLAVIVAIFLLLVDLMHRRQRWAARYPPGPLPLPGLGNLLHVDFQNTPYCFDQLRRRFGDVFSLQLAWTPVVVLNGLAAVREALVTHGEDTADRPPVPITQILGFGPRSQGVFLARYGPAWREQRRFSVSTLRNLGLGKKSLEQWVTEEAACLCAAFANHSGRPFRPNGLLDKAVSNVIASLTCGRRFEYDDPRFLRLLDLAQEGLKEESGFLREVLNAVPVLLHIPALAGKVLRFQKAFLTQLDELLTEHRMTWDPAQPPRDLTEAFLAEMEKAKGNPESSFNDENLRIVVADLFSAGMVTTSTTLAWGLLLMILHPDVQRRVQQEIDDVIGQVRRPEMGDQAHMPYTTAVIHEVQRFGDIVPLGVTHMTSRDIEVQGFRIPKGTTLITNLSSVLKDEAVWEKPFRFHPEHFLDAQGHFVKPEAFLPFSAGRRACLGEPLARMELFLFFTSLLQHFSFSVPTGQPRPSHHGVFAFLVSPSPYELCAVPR
Chain of Serine/threonine-protein kinase B-raf (Homo sapiens), P15056 [V600E] (P15056 whole entry V600E): as the sequence (P15056 whole entry) above, with V600E counted along it

GI50 [1]: 0.00213 µM | inhibition [3]: inactive | half-life [4]: 1.41 min | inhibition [5]: inactive | inhibition [7]: inactive | half-life [10]: > 289 min | GI50 [11]: > 10 µM | Drug metabolism [13]: Metabolite_Detected | inhibition at 10 µM [14]: 63.3% | inhibition [15]: inactive | inhibition [18]: inactive | inhibition at 10 µM [19]: 44.6% | GI50 [20]: 0.06 µM | inhibition [21]: inactive | fold change (FC) [22]: > 5085 | CLint scaled [23]: 3.08 L/h/kg | inhibition [25]: inactive | remaining at 1 h [26]: 13.6% | inhibition at 10 µM [27]: 0% | inhibition at 10 µM [28]: 21.5% | remaining at 1 h [29]: 84.5% | GI50 [30]: 0.00629 µM | inhibition [31]: inactive
SMILES: COc1cc(C(C)O/C(=N\OC[C@H](O)CO)c2ccc(F)c(F)c2Nc2ccc(I)cc2F)c([N+](=O)[O-])cc1OC (stereo partly specified)
GI50 at 72 h [2]: > 10 µM | inhibition [6]: inactive | inhibition [8]: Active | RatioGI50 [9]: >5000 | inhibition [12]: Active | Activity [16]: inactive | Activity [17]: Dose-Dependent Effect | inhibition [24]: inactive
